Assay results from patent US9403873B2, “Peptides targeting receptor activator of nuclear factor-κB (RANK) and their applications” (UNIVERSITE DE NANTES, priority 2011, dated 2016).
Ends that are not written are not given here. (PEG)5 = linear (PEG)5 polyethylene glycol chain at N-terminal amino acid

Legend:
hRANK = target: T1, hRANK (Homo sapiens, UniProt Q9Y6Q6); assay: Surface plasmon resonance (Biacore) binding to immobilized RANK-Fc; conditions: SPR, 1:1 Langmuir model
T1 construct: For NMR experiments with soluble RANK receptor-Fc (R&D Systems); purchased R&D Systems
T1 sequence (Q9Y6Q6 30-212 limits assumed): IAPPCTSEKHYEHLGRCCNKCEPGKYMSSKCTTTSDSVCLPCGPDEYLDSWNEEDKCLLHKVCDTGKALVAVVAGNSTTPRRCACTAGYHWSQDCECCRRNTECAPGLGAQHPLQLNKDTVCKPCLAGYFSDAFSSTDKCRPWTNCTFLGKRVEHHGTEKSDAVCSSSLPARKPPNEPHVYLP
Description: Biosensor experiments were carried out on a BIAcore 3000 instrument (BIAcore) as published previously (Baud′Huin et al. 2009). Recombinant purified RANKL (2 μg/mL in 5 mM maleate, pH 5.75) or RANK-Fc carrier-free (5 μg/mL in sodium acetate buffer, pH 5.0) were covalently immobilized to the dextran matrix of a CM5 sensor chip (BIAcore) at a flow rate of 5 μL/min. Immobilization levels ranging from 400 to 3000 Response Units (RU) for RANKL or 5000 RU for RANK were obtained. Binding assays were performed at 25° C. in 10 mM Hepes buffer, pH 7.4. The association phase was 180 seconds followed by a dissociation phase in the same buffer. Polypeptides binding studies to RANK or RANKL were determined using single cycle kinetics, starting with 100 μM of the polypeptide of interest followed by 2-fold serial dilutions (ranging from 100 to 0.78 μM). The sensorgrams were fitted to calculate the equilibrium-dissociation constants using the Langmuir 1:1 model with BiaEval 4.1 software (BIAcore). RANK-Fc CF, RANKL and OPG carrier-free were obtained from R&D Systems (Minneapolis, Minn., USA).

[1] = test system: ovariectomized C57BL/6 mice; assay: Ovariectomy-induced bone loss in mice, micro-CT of tibiae and L4 vertebrae; type: in vivo, mouse; conditions: 35 days
Description: Eight-week-old ovariectomized (OVX) female C57BL6 and non-ovariectomized control mice were purchased from Janvier (Le Genest Saint Ilsle, France). Mice were housed under pathogen-free conditions at the Experimental Therapy Unit (Faculty of Medicine, University of Nantes, France), and animal care and experimental protocols were approved by the French Ministry of Research and were done in accordance with the institutional guidelines of the French Ethical Committee and under the supervision of authorized investigators. After recovery from OVX surgery for 7 days and acclimation, the mice were randomly divided into treatment groups receiving daily subcutaneous injections of a peptide and a control group receiving daily injections of the vehicle (PBS) only. Non-ovariectomized or sham-operated mice were included in the studies as healthy controls. Three experimental protocols were established. Protocol 1: Ovariectomized mice received daily s.c. injections of 10 mg/kg body weight Pep8 (Pep8, n=8) or vehicle only (OVX, n=8). Non-ovariectomized (NOV, n=8) mice served as normal controls. Protocol 2: Ovariectomized mice were randomly divided into four groups (n=8), receiving daily treatments with pegylated Pep8 (Pep8-NPEG5) at 10 mg/kg or 2.5 mg/kg, or unpegylated Pep8 at a dose of 10 mg/kg/d, or the vehicle only. Sham-operated mice (n=5) served as healthy controls. Protocol 3: Ovariectomized mice receiving daily treatments with pegylated Pep8 (Pep8-NPEG8) at 10 mg/kg or 2.5 mg/kg, as described before, or unpegylated Pep8 at a lower dose of 2.5 mg/kg/d, or the vehicle only. Sham-operated mice (n=8) served as healthy controls.
During the experimental period, the body weight of the mice was monitored. […] After treatment for five weeks, mice were anesthetized with isoflurane (2%, 1 L/min) and sacrificed by cervical dislocation. Lumbar vertebrae and tibiae were collected for micro-CT analysis and stored at 4° C. in 4% paraformaldehyde until further analysis. Additionally, internal organs (heart, liver, lungs, kidneys, spleen, intestines and thymus) of some mice (n=3 per group) were harvested and stored for toxicity screening.
Analysis of architectural variables of tibiae and vertebrae of mice was performed using the high-resolution X-ray micro-CT system for small animal imaging SkyScan-1072 (SkyScan, Belgium). After scanning, the image data were transferred to a workstation and the proximal tibiae and the fourth lumbar vertebrae (L4) were rendered for 3-D display and calculation of the structural indices (Parfitt et al. 1987) using the SkyScan analysis system (CT-analyser, CT-volume, SkyScan). For trabecular bone parameters in tibiae, transverse CT slices were obtained in the region of interest in the axial direction from the trabecular bone ca. 0.1 mm below the growth plate to the mid-femur. Contours were defined and drawn close to the cortical bone. The trabecular bone was then removed and analyzed separately. Fifty slices (1 mm) at approximately […] distal to the growth plate of the proximal ends of the tibiae were used for analysis. […] The threshold level for the measurements was set at 55 for the analyses. The analysis of the specimens involved the following bone measurements: bone volume fraction (BV/TV, %), trabecular number (TbN), trabecular thickness (TbTh) and trabecular spacing (TbSp).

Kd (hRANK; 25° C., pH 7.4, read-out: binding affinity (Kd) to hRANK) [µM] | kon (hRANK; read-out: association rate constant (kon)) [M⁻¹ s⁻¹] | koff (hRANK; read-out: dissociation rate constant (koff)) [s⁻¹] | Substance | protection against OVX-induced trabecular bone loss (μCT, tibiae) ([1]; 2.5 mg/kg/d s.c.) | trabecular BV/TV and TbN, tibiae ([1]; 2.5 mg/kg/d, vs vehicle) | protection against OVX-induced trabecular bone loss (μCT) ([1]; 10 mg/kg/d s.c.)
20.6 | 13.5 | 0.000278 | ELASYIIITQLG [Pep1, ELASYIIITQLG] |  |  | 
 |  |  | Pep8-NPEG5: Pep8 carrying a linear (PEG)5 polyethylene glycol chain at the N-terminal amino acid ({(PEG)5}-NVLKLCSGE) | almost as effective | significantly increasing | attenuated bone loss in OVX mice to the same extent as treatment with the unpegylated peptide
